# Patent publication US9248122B2, “Heteroquinoline-3-carboxamides as KCNQ2/3 modulators” (GRÜNENTHAL GMBH, priority 2012, dated 2016)
# Columns and labels:
# KCNQ2/3 channels = target: T1, KCNQ2/3 channels (Homo sapiens, UniProt O43525+O43526); experiment: Fluorescence assay using a voltage sensitive dye (fluorimetry); type: cell-based; conditions: CHO-K1 cells expressing KCNQ2/3 channels; for Emax: relative to retigabine = 100%, read-out: Fluorimetry % efficacy (retigabine = 100%)
# T1 construct: expressed in transfected cells
# Procedure: Pharmacological Experiments Method I. Fluorescence Assay Using a Voltage Sensitive Dye
# […] CHO—K1 cells expressing KCNQ2/3 channels are cultivated adherently at 37° C., 5% CO2 and 95% humidity in cell culture bottles (e.g. 80 cm^2 TC flasks, Nunc) with DMEM-high glucose (Sigma Aldrich, D7777) including 10% FCS (PAN Biotech, e.g. 3302-P270521) or alternatively MEM Alpha Medium (lx, liquid, Invitrogen, #22571), 10% fetal calf serum (FCS) (Invitrogen, #10270-106, heat-inactivated) and the necessary selection antibiotics.
# Before being sown out for the measurements, the cells are washed with a 1×DPBS buffer without Ca^2+/Mg^2+ (e.g. Invitrogen, #14190-094) and detached from the bottom of the culture vessel by means of Accutase (PAA Laboratories, #L11-007) (incubation with Accutase for 15 min at 37° C.). The cell count then present is determined using a CASY™ cell counter (TCC model, Scharfe System) in order subsequently to apply, depending on the density optimization for the individual cell line, 20,000-30,000 cells/well/100 μl of the described nutrient medium to 96-well measuring plates of the Corning™ CeIIBIND™ type (Flat Clear Bottom Black Polystyrene Microplates, #3340). Incubation is then carried out for one hour at room temperature, without gassing or adjusting the humidity, followed by incubation for 24 hours at 37° C., 5% CO2 and 95% humidity.
# The voltage-sensitive fluorescent dye from the Membrane Potential Assay Kit (Red™ Bulk format part R8123 for FLIPR, MDS Analytical Technologies™) is prepared by dissolving the contents of a vessel Membrane Potential Assay Kit Red Component A in 200 ml of extracellular buffer (ES buffer, 120 mM NaCl, 1 mM KCl, 10 mM HEPES, 2 mM CaCl2, 2 mM MgCl2, 10 mM glucose; pH 7.4). After removal of the nutrient medium, the cells are washed with 200 μl of ES buffer, then covered with a layer of 100 μl of the dye solution prepared above and incubated for 45 min at room temperature with the exclusion of light.
# The fluorescence measurements are carried out with a BMG Labtech FLUOstar™, BMG Labtech NOVOstar™ or BMG Labtech POLARstar™ instrument (525 nm excitation, 560 nm emission, Bottom Read mode). After incubation of the dye, 50 μl of the test substances in the desired concentrations, or 50 μl of ES buffer for control purposes, are introduced into separate cavities of the measuring plate and incubated for 30 min at room temperature while being shielded from light. The fluorescence intensity of the dye is then measured for 5 min and the fluorescence value F1 of each well is thus determined at a given, constant time. 15 μl of a […] KCl solution ([…]) are then added to each well. The change in fluorescence is subsequently measured until all the relevant measured values have been obtained (mainly 5-30 min). At a given time after KCl application, a fluorescence value F2 is determined, in this case at the time of the fluorescence peak.
# For calculation, the fluorescence intensity F2 is corrected for the fluorescence intensity F1, and the activity (ΔF/F) of the target compound on the potassium channel is determined as follows:
# In order to determine whether a substance has agonistic activity,
# A substance has an agonistic activity on the potassium channel if
# Calculations of EC50 and IC50 values are carried out with the aid of ‘Prism v4.0’ software (GraphPad Software™)
# [1] = tested on: withdrawal reflex of the rat tail (tail flick); experiment: Low-intensity tail flick test (rat); type: in vivo; conditions: dose 10 mg/kg
# Procedure: Method II. Low-Intensity Tail Flick Test (Rat)
# In the low-intensity tail flick test, the determination of the antinociceptive effect of the compounds according to the invention towards an acute noxious thermal stimulus is carried out by measuring the withdrawal reflex of the rat tail (tail flick) in response to a radiant heat beam (analgesia meter; model 2011 of the company Rhema Labortechnik, Hofheim, Germany) according to the method described by D'Amour and Smith (J. Pharm. Exp. Ther. 72, 74 79 (1941). To this end, the rats were placed in a plexiglas restrainer, and a low-intensity radiant heat beam (48° C.) was focused onto the dorsal surface of the tail root. The stimulus intensity was adjusted to result in a mean pre-drug control withdrawal latency of about 7 s, thus also allowing a supraspinal modulation of the spinally mediated acute nociceptive reflex. […] Before administration of a compound according to the invention, the animals were pre-tested twice in the course of five minutes and the mean of these measurements was calculated as the pre-test mean. The antinociceptive effect was determined at 20, 40 and 60 min after peroral compound administration. The antinociceptive effect was calculated based on the increase in the tail withdrawal latency according to the following formula and is expressed as percentage of the maximum possible effect (MPE [%]): MPE=[(T1−T0)/(T2−T0)]*100 […]
SMILES,EC50 (KCNQ2/3 channels) [nM],Emax (KCNQ2/3 channels) [%],"Low intensity tail flick, rat, peroral, ED50 or MPE (dose) [mg/kg] [1]"
"CCOc1nc2sc(C(F)(F)F)cc2c(C)c1C(=O)NCc1cccc(F)c1 [Example 18, 6-Ethoxy-N-[(3-fluorophenyl)-methyl]-4-methyl-2-(trifluoromethyl)-thieno[2,3-b]pyridine-5-carboxylic acid amide]",63,112,–
"CCSc1nc2cnccc2c(C)c1C(=O)NCc1cccc(F)c1 [Example 2, 2-Ethylsulfanyl-N-[(3-fluorophenyl)-methyl]-4-methyl-[1,7]naphthyridine-3-carboxylic acid amide]",2190,62,–
"CCSc1nc2cc(C(F)(F)F)cnc2c(C)c1C(=O)NCc1cccc(F)c1 [Example 1, 2-Ethylsulfanyl-N-[(3-fluorophenyl)-methyl]-4-methyl-7-(trifluoromethyl)-[1,5]naphthyridine-3-carboxylic acid amide]",84,156,–
"CCSc1nc2cc(C(F)(F)F)ncc2c(C)c1C(=O)NCc1ccc(F)cc1 [Example 12, 2-Ethylsulfanyl-N-[(4-fluorophenyl)-methyl]-4-methyl-7-(trifluoromethyl)-[1,6]naphthyridine-3-carboxylic acid amide]",301,97,–
"CCSc1nc2sccc2c(C)c1C(=O)NCc1cccc(F)c1 [Example 4, 6-Ethylsulfanyl-N-[(3-fluorophenyl)-methyl]-4-methyl-thieno[2,3-b]pyridine-5-carboxylic acid amide]",–,31,–
"CCSc1nc2ncccc2c(C)c1C(=O)NCc1ccc(F)cc1 [Example 16, 2-Ethylsulfanyl-N-[(4-fluorophenyl)-methyl]-4-methyl-[1,8]naphthyridine-3-carboxylic acid amide]",–,10,–
"CCSc1nc2ccncc2c(C)c1C(=O)NCc1ccc(F)cc1 [Example 3, 2-Ethylsulfanyl-N-[(4-fluorophenyl)-methyl]-4-methyl-[1,6]naphthyridine-3-carboxylic acid amide]",–,34,–
"CCSc1nc2ccsc2c(C)c1C(=O)NCc1cccc(F)c1 [Example 14, 5-Ethylsulfanyl-N-[(3-fluorophenyl)-methyl]-7-methyl-thieno[3,2-b]pyridine-6-carboxylic acid amide]",650,-39,–
"CCSc1nc2cnccc2c(C)c1C(=O)NCc1ccc(F)cc1 [Example 15, 2-Ethylsulfanyl-N-[(4-fluorophenyl)-methyl]-4-methyl-[1,7]naphthyridine-3-carboxylic acid amide]",–,34,–
"CCSc1nc2ncccc2c(C)c1C(=O)NCc1cccc(F)c1 [Example 17, 2-Ethylsulfanyl-N-[(3-fluorophenyl)-methyl]-4-methyl-[1,8]naphthyridine-3-carboxylic acid amide]",–,10,–
"CCSc1nc2cccnc2c(C)c1C(=O)NCc1ccc(F)cc1 [Example 9, 2-Ethylsulfanyl-N-[(4-fluorophenyl)-methyl]-4-methyl-[1,5]naphthyridine-3-carboxylic acid amide]",–,6,–
"CCOc1nc2cc(C(F)(F)F)sc2c(C)c1C(=O)NCc1cccc(F)c1 [Example 5, 5-Ethoxy-N-[(3-fluorophenyl)-methyl]-7-methyl-2-(trifluoromethyl)-thieno[3,2-b]pyridine-6-carboxylic acid amide]",51,121,–
"CCSc1nc2cc(C(F)(F)F)ncc2c(C)c1C(=O)NCc1cccc(F)c1 [Example 11, 2-Ethylsulfanyl-N-[(3-fluorophenyl)-methyl]-4-methyl-7-(trifluoromethyl)-[1,6]naphthyridine-3-carboxylic acid amide]",201,101,–
"CCSc1nc2nc(C(F)(F)F)ccc2c(C)c1C(=O)NCc1ccc(F)cc1 [Example 7, 2-Ethylsulfanyl-N-[(4-fluorophenyl)-methyl]-4-methyl-7-(trifluoromethyl)-[1,8]naphthyridine-3-carboxylic acid amide]",412,132,16 (10) %
"CCSc1nc2ccncc2c(C)c1C(=O)NCc1cccc(F)c1 [Example 13, 2-Ethylsulfanyl-N-[(3-fluorophenyl)-methyl]-4-methyl-[1,6]naphthyridine-3-carboxylic acid amide]",–,32,–
"CCSc1nc2cc(C(F)(F)F)cnc2c(C)c1C(=O)NCc1ccc(F)cc1 [Example 10, 2-Ethylsulfanyl-N-[(4-fluorophenyl)-methyl]-4-methyl-7-(trifluoromethyl)-[1,5]naphthyridine-3-carboxylic acid amide]",101,148,–
"CCSc1nc2nc(C(F)(F)F)ccc2c(C)c1C(=O)NCc1cccc(F)c1 [Example 6, 2-Ethylsulfanyl-N-[(3-fluorophenyl)-methyl]-4-methyl-7-(trifluoromethyl)-[1,8]naphthyridine-3-carboxylic acid amide]",683,152,–
"CCSc1nc2cccnc2c(C)c1C(=O)NCc1cccc(F)c1 [Example 8, 2-Ethylsulfanyl-N-[(3-fluorophenyl)-methyl]-4-methyl-[1,5]naphthyridine-3-carboxylic acid amide]",–,9,–
